According to ChEMBL document CHEMBL5046300, “Potent Bactericidal Antimycobacterials Targeting the Chaperone ClpC1 Based on the Depsipeptide Natural Products Ecumicin and Ohmyungsamycin A” (2022):
≈ marks a conversion by molar mass, not a printed value. Calls of active or inactive are those of the source. No cut-off for these calls is given here. *1 amine or outer side, *2 acyl side, *3 side chain or, on linkers, in order; H or OH if unused. Where a SMILES comes first, the peptide text is derived from it. Bridges are numbered along the chain shown (N, C = ends). [ ]: non-standard residue; d: D form. The star is where a group is joined. Phe(3R-OH) = O=C([C@@H](N[*:1])[C@H](O[*:3])c1ccccc1)[*:2]; NMeTrp(4-OMe) = CN[C@@H](Cc1c[nH]c2cccc(OC)c12)C(=O)O; NMeW = CN[C@@H](Cc1c[nH]c2ccccc12)C(=O)O; NMe2Val = CC(C)[C@@H](C(=O)*)N(C)C; NMeT = CN[C@H](C(=O)O)[C@@H](C)O; NMeL = CN[C@@H](CC(C)C)C(=O)O; NMeNva = CCC[C@H](NC)C(=O)O; NMeV = CN[C@H](C(=O)O)C(C)C; NMeS = CN[C@@H](CO)C(=O)O; Pip = O=C(O)[C@@H]1CCCCN1; Sar = CNCC(=O)O

Experiments:
[1] = tested on: Mycobacterium tuberculosis; experiment: Antimycobacterial activity against Mycobacterium tuberculosis mc2 6230 measured after 7 days; type: functional; conditions: mc2 6230, 168 h, time 7 day
[2] = tested on: Mycobacterium tuberculosis; experiment: Antimycobacterial activity against Mycobacterium tuberculosis mc2 6230 assessed as log reduction in bacteria measured up to 21 days by Time kill assay; type: functional, organism-based; conditions: time day <=21
Pseudomonas aeruginosa = experiment: Antibacterial activity against Pseudomonas aeruginosa ATCC 27853 assessed as bacterial growth inhibition incubated for 18 to 20 hrs by broth microdilution method; type: functional; conditions: time 18-20 hrs
[3] = tested on: Yersinia pseudotuberculosis; experiment: Antibacterial activity against Yersinia pseudotuberculosis ATCC 6904 assessed as bacterial growth inhibition incubated for 18 to 20 hrs by broth microdilution method; type: functional; conditions: time 18-20 hrs
Listeria ivanovii = experiment: Antibacterial activity against Listeria ivanovii BAA-139 assessed as bacterial growth inhibition incubated for 18 to 20 hrs by broth microdilution method; type: functional; conditions: time 18-20 hrs
[4] = tested on: Providencia alcalifaciens; experiment: Antibacterial activity against Providencia alcalifaciens ATCC 9886 assessed as bacterial growth inhibition incubated for 18 to 20 hrs by broth microdilution method; type: functional; conditions: time 18-20 hrs
Streptococcus pneumoniae = experiment: Antibacterial activity against Streptococcus pneumoniae ATCC 49619 assessed as bacterial growth inhibition incubated for 18 to 20 hrs by broth microdilution method; type: functional; conditions: time 18-20 hrs
Acinetobacter baumannii = experiment: Antibacterial activity against Acinetobacter baumannii ATCC 19606 assessed as bacterial growth inhibition incubated for 18 to 20 hrs by broth microdilution method; type: functional; conditions: time 18-20 hrs
Vibrio cholerae = experiment: Antibacterial activity against Vibrio cholerae A1552 El Tor assessed as bacterial growth inhibition incubated for 18 to 20 hrs by broth microdilution method; type: functional; conditions: time 18-20 hrs
Bacillus subtilis = experiment: Antibacterial activity against Bacillus subtilis ATCC 6051 assessed as bacterial growth inhibition incubated for 18 to 20 hrs by broth microdilution method; type: functional; conditions: time 18-20 hrs
Klebsiella pneumoniae = experiment: Antibacterial activity against Klebsiella pneumoniae ATCC 700603 assessed as bacterial growth inhibition incubated for 18 to 20 hrs by broth microdilution method; type: functional; conditions: time 18-20 hrs
Shigella sonnei = experiment: Antibacterial activity against Shigella sonnei ATCC 25931 assessed as bacterial growth inhibition incubated for 18 to 20 hrs by broth microdilution method; type: functional; conditions: time 18-20 hrs
Salmonella enterica = experiment: Antibacterial activity against Salmonella enterica ATCC 13311 assessed as bacterial growth inhibition incubated for 18 to 20 hrs by broth microdilution method; type: functional; conditions: time 18-20 hrs
Enterococcus faecalis = experiment: Antibacterial activity against Enterococcus faecalis ATCC 29212 assessed as bacterial growth inhibition incubated for 18 to 20 hrs by broth microdilution method; type: functional; conditions: time 18-20 hrs
Staphylococcus aureus [5] = experiment: Antibacterial activity against methicillin-sensitive Staphylococcus aureus ATCC 29213 assessed as bacterial growth inhibition incubated for 18 to 20 hrs by broth microdilution method; type: functional; conditions: time 18-20 hrs
[6] = tested on: Staphylococcus epidermidis; experiment: Antibacterial activity against Staphylococcus epidermidis ATCC 14990 assessed as bacterial growth inhibition incubated for 18 to 20 hrs by broth microdilution method; type: functional; conditions: time 18-20 hrs
Klebsiella aerogenes = experiment: Antibacterial activity against Klebsiella aerogenes ATCC 35029 assessed as bacterial growth inhibition incubated for 18 to 20 hrs by broth microdilution method; type: functional; conditions: time 18-20 hrs
Brucella anthropi = experiment: Antibacterial activity against Ochrobactrum anthropi ATCC 49687 assessed as bacterial growth inhibition incubated for 18 to 20 hrs by broth microdilution method; type: functional; conditions: time 18-20 hrs
Enterococcus faecium = experiment: Antibacterial activity against Enterococcus faecium ATCC 6569 assessed as bacterial growth inhibition incubated for 18 to 20 hrs by broth microdilution method; type: functional; conditions: time 18-20 hrs
Staphylococcus aureus [7] = experiment: Antibacterial activity against methicillin-resistant Staphylococcus aureus BAA-44 assessed as bacterial growth inhibition incubated for 18 to 20 hrs by broth microdilution method; type: functional; conditions: time 18-20 hrs
Escherichia coli = experiment: Antibacterial activity against Escherichia coli K-12 MG1655 assessed as bacterial growth inhibition incubated for 18 to 20 hrs by broth microdilution method; type: functional; conditions: time 18-20 hrs

Question: Which MIC [1] does the source give for `CCC[C@H]1C(=O)N(C)[C@@H](Cc2c[nH]c3ccccc23)C(=O)N[C@@H](C(C)C)C(=O)N[C@@H](Cc2ccccc2)C(=O)N[C@@H](C(C)C)C(=O)O[C@H](C)[C@H](NC(=O)[C@@H](NC(=O)[C@@H](NC)C(C)C)C(C)C)C(=O)N(C)[C@@H]([C@@H](C)O)C(=O)N[C@@H](C(C)C)C(=O)N(C)[C@@H](CC(C)C)C(=O)N[C@@H](C(C)C)C(=O)N1C` (H-[NMeV]VT[NMeT]V[NMeL]V[NMeNva][NMeW]VFV; ester 3-C) here?
Answer: The MIC was 0.5 µM (≈ 0.706 µg/mL).

Question: `CN[C@H](C(=O)N[C@H](C(=O)N[C@@H]1C(=O)N(C)[C@@H]([C@@H](C)O)C(=O)N[C@@H](C(C)C)C(=O)N(C)[C@@H](CC(C)C)C(=O)N[C@@H](C(C)C)C(=O)N(C)[C@@H](CO)C(=O)N(C)[C@@H](Cc2c[nH]c3ccccc23)C(=O)N[C@@H](C(C)C)C(=O)N[C@@H](Cc2ccccc2)C(=O)N[C@@H](C(C)C)C(=O)O[C@@H]1C)C(C)C)C(C)C` (H-[NMeV]VT[NMeT]V[NMeL]V[NMeS][NMeW]VFV; ester 3-C) was tested. Which MIC [1] did it give?
Answer: The MIC was 2 µM (≈ 2.8 µg/mL).

Question: What does the source list for `CN[C@H](C(=O)N[C@H](C(=O)N[C@@H]1C(=O)N(C)[C@@H]([C@@H](C)O)C(=O)N[C@@H](C(C)C)C(=O)N(C)[C@@H](CC(C)C)C(=O)N[C@@H](C(C)C)C(=O)N(C)[C@@H](C(C)C)C(=O)N(C)[C@@H](Cc2c[nH]c3ccccc23)C(=O)N[C@@H](C(C)C)C(=O)N[C@@H](Cc2ccccc2)C(=O)N[C@@H](C(C)C)C(=O)O[C@@H]1C)C(C)C)C(C)C` (H-[NMeV]VT[NMeT]V[NMeL]V[NMeV][NMeW]VFV; ester 3-C)?
Answer: Activity [2]: Active; MIC [1]: 0.25 µM (≈ 0.353 µg/mL)

Question: Which MIC [1] does the source give for `CN[C@H](C(=O)N[C@H](C(=O)N[C@@H]1C(=O)N(C)[C@@H]([C@@H](C)O)C(=O)N[C@@H](C(C)C)C(=O)N(C)[C@@H](CC(C)C)C(=O)N[C@@H](C(C)C)C(=O)N(C)[C@@H](Cc2c[nH]c3ccccc23)C(=O)N(C)[C@@H](Cc2c[nH]c3ccccc23)C(=O)N[C@@H](C(C)C)C(=O)N[C@@H](Cc2ccccc2)C(=O)N[C@@H](C(C)C)C(=O)O[C@@H]1C)C(C)C)C(C)C` (H-[NMeV]VT[NMeT]V[NMeL]V[NMeW][NMeW]VFV; ester 3-C) here?
Answer: The MIC was 0.5 µM (≈ 0.75 µg/mL).

Question: `CN[C@H](C(=O)N[C@H](C(=O)N[C@@H]1C(=O)N(C)[C@@H]([C@@H](C)O)C(=O)N[C@@H](C(C)C)C(=O)N(C)[C@@H](CC(C)C)C(=O)N[C@@H](C(C)C)C(=O)N2CCCC[C@H]2C(=O)N(C)[C@@H](Cc2c[nH]c3ccccc23)C(=O)N[C@@H](C(C)C)C(=O)N[C@@H](Cc2ccccc2)C(=O)N[C@@H](C(C)C)C(=O)O[C@@H]1C)C(C)C)C(C)C` (H-[NMeV]VT[NMeT]V[NMeL]V[Pip][NMeW]VFV; ester 3-C) was tested. Which MIC [1] did it give?
Answer: The MIC was 4 µM (≈ 5.64 µg/mL).

Question: How did the MIC [1] turn out when `CN[C@H](C(=O)N[C@H](C(=O)N[C@@H]1C(=O)N(C)[C@@H]([C@@H](C)O)C(=O)N[C@@H](C(C)C)C(=O)N(C)[C@@H](CC(C)C)C(=O)N[C@@H](C(C)C)C(=O)N(C)CC(=O)N(C)[C@@H](Cc2c[nH]c3ccccc23)C(=O)N[C@@H](C(C)C)C(=O)N[C@@H](Cc2ccccc2)C(=O)N[C@@H](C(C)C)C(=O)O[C@@H]1C)C(C)C)C(C)C` (H-[NMeV]VT[NMeT]V[NMeL]V[Sar][NMeW]VFV; ester 3-C) was run?
Answer: The MIC was 8 µM (≈ 11 µg/mL).

Question: With `COc1cccc2[nH]cc(C[C@H]3C(=O)N[C@@H](C(C)C)C(=O)N[C@@H]([C@H](O)c4ccccc4)C(=O)N[C@@H](C(C)C)C(=O)O[C@H](C)[C@H](NC(=O)[C@@H](NC(=O)[C@H](C(C)C)N(C)C)C(C)C)C(=O)N(C)[C@@H]([C@@H](C)O)C(=O)N[C@@H](C(C)C)C(=O)N(C)[C@@H](CC(C)C)C(=O)N[C@@H](C(C)C)C(=O)N(C)[C@@H](C(C)C)C(=O)N3C)c12` (NMe2Val-VT[NMeT]V[NMeL]V[NMeV][NMeTrp(4-OMe)]V[Phe(3R-OH)]V; ester 2-C) as the compound, how does the MIC [1] read?
Answer: The MIC was 0.5 µM (≈ 0.736 µg/mL).

Question: `CN[C@@H]1[C@H](O[C@H]2[C@H](O[C@H]3[C@H](O)[C@@H](O)[C@H](N=C(N)N)[C@@H](O)[C@@H]3N=C(N)N)O[C@@H](C)[C@]2(O)C=O)O[C@@H](CO)[C@H](O)[C@H]1O` [STREPTOMYCIN] was tested. Which MIC (Pseudomonas aeruginosa) did it give?
Answer: Its MIC is 16 µM (≈ 9.31 µg/mL).

Question: What about the MIC [3] of the same compound?
Answer: The MIC was 6.7 µM (≈ 3.9 µg/mL).

Question: And the MIC (Listeria ivanovii)?
Answer: The MIC was 4 µM (≈ 2.33 µg/mL).

Question: And the MIC [4]?
Answer: Its MIC is 9.3 µM (≈ 5.41 µg/mL).

Question: And the MIC (Streptococcus pneumoniae)?
Answer: Its MIC is 48 µM (≈ 27.9 µg/mL).

Question: What about the MIC (Acinetobacter baumannii) of the same compound?
Answer: The MIC was 128 µM (≈ 74.4 µg/mL).

Question: And the MIC (Vibrio cholerae)?
Answer: Its MIC is 13 µM (≈ 7.56 µg/mL).

Question: And the MIC (Bacillus subtilis)?
Answer: Its MIC is 128 µM (≈ 74.4 µg/mL).

Question: And the MIC (Klebsiella pneumoniae)?
Answer: The MIC was 0.17 µM (≈ 0.0989 µg/mL).

Question: What about the MIC (Shigella sonnei) of the same compound?
Answer: Its MIC is 0.25 µM (≈ 0.145 µg/mL).

Question: And the MIC (Salmonella enterica)?
Answer: The MIC was 0.33 µM (≈ 0.192 µg/mL).

Question: What about the MIC (Enterococcus faecalis) of the same compound?
Answer: Its MIC is 128 µM (≈ 74.4 µg/mL).

Question: What about the MIC (Staphylococcus aureus [5]) of the same compound?
Answer: The MIC was 2.7 µM (≈ 1.57 µg/mL).

Question: And the MIC [6]?
Answer: Its MIC is 2.7 µM (≈ 1.57 µg/mL).

Question: What about the MIC (Klebsiella aerogenes) of the same compound?
Answer: Its MIC is 0.25 µM (≈ 0.145 µg/mL).

Question: And the MIC (Brucella anthropi)?
Answer: The MIC was 128 µM (≈ 74.4 µg/mL).

Question: What about the MIC (Enterococcus faecium) of the same compound?
Answer: Its MIC is 16 µM (≈ 9.31 µg/mL).

Question: What about the MIC (Staphylococcus aureus [7]) of the same compound?
Answer: Its MIC is 9.3 µM (≈ 5.41 µg/mL).

Question: And the MIC (Escherichia coli)?
Answer: Its MIC is 0.25 µM (≈ 0.145 µg/mL).
